Measurements from patent publication US20230011869A1 (Hoffmann-La Roche Inc., priority 2018, published 2023).
Structures can show the parent of a compound that is named as a salt.

tested on: Acinetobacter baumannii ATCC17961; test: Antimicrobial susceptibility testing: 90% growth inhibitory concentration (IC90) determination, Iso-Sensitest broth; assay type: cell-based; settings: Acinetobacter baumannii, ATCC17961, 16 h, 90% growth inhibitory concentration, Acinetobacter baumannii ATCC17961, Iso-Sensitest broth, OD 600 nm over 16 h; read-out: ATCC17961 IC90
Outline: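 Twofold serial dilutions (e.g. 50 to 0.097 μM final) in Iso-Sensitest broth, inoculum 5×10^(5) CFU/ml, incubated at 35±2° C. OD600 read every 20 minutes over 16 h; IC90 derived from growth inhibition during logarithmic phase.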

Row | SMILES | IC90 [nM]
1 | COc1ccc(-c2cnc3c(Nc4ccc(C(=O)N5CCN(C(=O)[C@H](CCCNC(=N)N)NC(=O)[C@@H](N)CCC(=O)O)CC5)c(C)c4)nccn23)c(F)c1F [Example 555, (S)-4-amino-5-(((S)-1-(4-(4-((3-(2,3-difluoro-4-methoxyphenyl)imidazo[1,2-a]pyrazin-8-yl)amino)-2-methylbenzoyl)piperazin-1-yl)-5-guanidino-1-oxopentan-2-yl)amino)-5-oxopentanoic acid trihydrochloride] | 704
2 | Cc1cc(Nc2nccn3c(-c4ccc(OC(F)F)cc4)cnc23)ccc1C(=O)N1CCN(C(=O)OC(C)(C)C)CC1 [Example 556, tert-butyl 4-(4-((3-(4-(difluoromethoxy)phenyl)imidazo [1,2-a]pyrazin-8-yl)amino)-2-methylbenzoyl)piperazine-1-carboxylate] | 418
3 | COc1ccc(-c2cnc3c(Nc4ccc(C(=O)N5CCC(C(=O)N6C[C@@H](O)[C@@H](O)[C@@H](O)C6)CC5)c(C)c4)nccn23)c(F)c1F [Example 569, (1-(4-((3-(2,3-difluoro-4-methoxyphenyl)imidazo[1,2-a]pyrazin-8-yl)amino)-2-methylbenzoyl)piperidin-4-yl)((3R,4s,5S)-3,4,5-trihydroxypiperidin-1-yl)methanone] | 205
4 | COc1ccc(-c2cnc3c(Nc4ccc(C(=O)N5CCC(C(=O)NCC(O)Cn6cccn6)CC5)c(C)c4)nccn23)c(F)c1F (centres unmarked) [Example 570, 1-(4-((3-(2,3-difluoro-4-methoxyphenyl)imidazo[1,2-a]pyrazin-8-yl)amino)-2-methylbenzoyl)-N-(2-hydroxy-3-(1H-pyrazol-1-yl)propyl)piperidine-4-carboxamide] | 245
5 | COc1ccc(-c2cnc3c(Nc4ccc(C(=O)N5CCC(C(=O)NCC(O)CN6CCOC(C)C6)CC5)c(C)c4)nccn23)c(F)c1F (centres unmarked) [Example 571, 1-(4-((3-(2,3-difluoro-4-methoxyphenyl)imidazo[1,2-a]pyrazin-8-yl)amino)-2-methylbenzoyl)-N-(2-hydroxy-3-(2-methylmorpholino)propyl) piperidine-4-carboxamide] | 265
6 | COc1ccc(-c2cnc3c(Nc4ccc(C(=O)N5CCC(C(=O)NCC(O)CN6CCOCC6)CC5)c(C)c4)nccn23)c(F)c1F (centres unmarked) [Example 572, 1-(4-((3-(2,3-difluoro-4-methoxyphenyl)imidazo[1,2-a]pyrazin-8-yl)amino)-2-methylbenzoyl)-N-(2-hydroxy-3-morpholinopropyl)piperidine-4-carboxamide] | 216
7 | COc1ccc(-c2cnc3c(Nc4ccc(C(=O)N5CCN(C(=O)[C@@H]6CC(F)(F)CN6)CC5)c(C)c4)nccn23)c(F)c1F [Example 573, (S)-(4-(4-((3-(2,3-difluoro-4-methoxyphenyl)imidazo[1,2-a]pyrazin-8-yl)amino)-2-methylbenzoyl)piperazin-1-yl)(4,4-difluoropyrrolidin-2-yl)methanone hydrochloride] | 310
8 | COc1ccc(-c2cnc3c(Nc4ccc(C(=O)N5CCN(C(=O)[C@@H]6C[C@@H](C#N)CN6)CC5)c(C)c4)nccn23)c(F)c1F [Example 574, (3R,5S)-5-[4-[4-[[3-(2,3-difluoro-4-methoxyphenyl)imidazo[1,2-a]pyrazin-8-yl]amino]-2-methylbenzoyl]piperazine-1-carbonyl]pyrrolidine-3-carbonitrile;hydrochloride] | 265

Further lines, results first:

Row | IC90 [nM] | SMILES
9 | 583 | COc1ccc(-c2cnc3c(Nc4cc(C)c(C(=O)N5CCN(C(=O)[C@@H]6C[C@@H](O)CN6)CC5)c(Cl)c4)nccn23)c(F)c1F [Example 575, (4-(2-chloro-4-((3-(2,3-difluoro-4-methoxyphenyl)imidazo[1,2-a]pyrazin-8-yl)amino)-6-methylbenzoyl)piperazin-1-yl)((2S,4R)-4-hydroxypyrrolidin-2-yl)methanone dihydrochloride]
10 | 236 | COc1ccc(-c2cnc3c(Nc4ccc(C(=O)N5CCN(C(=O)[C@@H]6C[C@@H](O)CN6)CC5)c(C)c4F)nccn23)c(F)c1F [Example 576, (4-(4-((3-(2,3-difluoro-4-methoxyphenyl)imidazo[1,2-a]pyrazin-8-yl)amino)-3-fluoro-2-methylbenzoyl)piperazin-1-yl)((2S,4R)-4-hydroxypyrrolidin-2-yl)methanone dihydrochloride]
11 | 258 | COc1ccc(-c2cnc3c(Nc4ccc(C(=O)N5CCN(S(=O)(=O)[C@@H]6CCNC6)CC5)c(C)c4)nccn23)c(F)c1F [Example 579, (R)-(4-((3-(2,3-difluoro-4-methoxyphenyl)imidazo[1,2-a]pyrazin-8-yl)amino)-2-methylphenyl)(4-(pyrrolidin-3-ylsulfonyl)piperazin-1-yl)methanone]
12 | 601 | CCc1cc(Nc2nccn3c(-c4ccc(OC)c(F)c4F)cnc23)ccc1C(=O)N1CCN(CCO[C@@H]2O[C@H](CO)[C@H](O)[C@H](O)[C@H]2O)CC1 [Example 580, (4-((3-(2,3-difluoro-4-methoxyphenyl)imidazo[1,2-a]pyrazin-8-yl)amino)-2-ethylphenyl)(4-(2-(((2R,3R,4S,5R,6R)-3,4,5-trihydroxy-6-(hydroxymethyl)tetrahydro-2H-pyran-2-yl)oxy)ethyl)piperazin-1-yl)methanone]
13 | 464 | COc1ccc(-c2cnc3c(Nc4ccc(C(=O)N5C[C@H]6CNC[C@@H](C5)O6)c(C)c4)nccn23)c(F)c1F [Example 581, ((1R,5S)-9-oxa-3,7-diazabicyclo[3.3.1]nonan-3 - yl)(4-((3-(2,3-difluoro-4-methoxyphenyl)imidazo[1,2-a]pyrazin-8-yl)amino)-2-methylphenyl)methanone dihydrochloride]
14 | 273 | COc1ccc(-c2cnc3c(Nc4ccc(C(=O)N5CCN(C(=O)[C@@H]6C[C@@](O)(C(F)(F)F)CN6)CC5)c(C)c4)nccn23)c(F)c1F [Example 582, (4-(4-((3-(2,3-difluoro-4-methoxyphenyl)imidazo[1,2-a]pyrazin-8-yl)amino)-2-methylbenzoyl)piperazin-1-yl)((2S,4S)-4-hydroxy-4-(trifluoromethyl)pyrrolidin-2-yl)methanone hydrochloride]
15 | 460 | COc1ccc(-c2cnc3c(Nc4ccc(C(=O)N5CCN(C(=O)[C@@H]6C[C@@](OC)(C(F)(F)F)CN6)CC5)c(C)c4)nccn23)c(F)c1F [Example 583, (4-(4-((3-(2,3-difluoro-4-methoxyphenyl)imidazo[1,2-a]pyrazin-8-yl)amino)-2-methylbenzoyl)piperazin-1-yl)((2S,4S)-4-methoxy-4-(trifluoromethyl)pyrrolidin-2-yl)methanone hydrochloride]
16 | 164 | COc1ccc(-c2cnc3c(Nc4ccc(C(=O)N5CCC(C(=O)NC[C@H]6O[C@H](O)[C@H](N)[C@@H](O)[C@@H]6O)CC5)c(C)c4)nccn23)c(F)c1F [Example 584, N-(((2R,3S,4R,5R,6S)-5-amino-3,4,6-trihydroxytetrahydro-2H-pyran-2-yl)methyl)-1-(4-((3-(2,3-difluoro-4-methoxyphenyl)imidazo[1,2-a]pyrazin-8-yl)amino)-2-methylbenzoyl)piperidine-4-carboxamide]

same assay, conditions: Acinetobacter baumannii, ATCC17961, 16 h, read-out: ATCC17961 IC90

Row | SMILES | IC90 [nM]
17 | CCc1cc(Nc2nccn3c(-c4ccc(OC)c(F)c4F)cnc23)ccc1C(=O)N1CC(OCCN)C1 [Example 585, (3-(2-aminoethoxy)azetidin-1-yl)(4-((3-(2,3-difluoro-4-methoxyphenyl)imidazo[1,2-a]pyrazin-8-yl)amino)-2-ethylphenyl)methanone formate] | 94
